Assay: Paal-Knorr-like closure of a side-chain 1,4-diketone (DOP, unmasked from 5-substituted furan in TFA/m-cresol 9:1) with a side-chain alkylhydrazine (Nu1), then air oxidation to a pyridazinium staple; crude redissolved in mQ water, pH adjusted to ~7.5
Settings: the molecule shown is the open-chain precursor, 29-membered ring, pH ~7.5, 5.0 mM

Question: Which ring closure, overall yield does the source give for COc1ccc(C(=O)CCC(=O)CCC(=O)NCCC[C@H](NC(=O)[C@H](Cc2ccc(O)cc2)NC(C)=O)C(=O)N[C@@H](CCCNC(=N)N)C(=O)NCC(=O)N[C@@H](CC(=O)O)C(=O)N[C@@H](CCCNC(=O)CNN)C(=O)N[C@@H](CO)C(=O)N[C@@H](Cc2c[nH]c3ccccc23)C(N)=O)cc1 here?
Answer: 13.5%

Question: Which ring closure, overall yield does the source give for CC[C@H](C)[C@H](NC(=O)[C@H](CCCNC(=O)CNN)NC(=O)c1ccc(NC(C)=O)cc1)C(=O)N[C@@H](C)C(=O)N[C@@H](C)C(=O)N[C@@H](CC(C)C)C(=O)N[C@@H](CCCCN)C(=O)N[C@@H](CCC(=O)O)C(=O)N[C@@H](CCCCN)C(=O)N[C@H](C(=O)N[C@@H](CCCNC(=O)CNN)C(=O)N[C@@H](C)C(=O)N[C@@H](CC(C)C)C(=O)N[C@@H](CCCCN)C(=O)N[C@@H](CCCNC(=O)CCC(=O)CCC(C)=O)C(=O)N[C@@H](CCCCN)C(=O)N[C@H](C(=O)N[C@@H](C)C(=O)N[C@@H](C)C(=O)N[C@@H](CC(C)C)C(=O)N[C@@H](CCCCN)C(=O)N[C@@H](CCC(=O)O)C(N)=O)[C@@H](C)CC)[C@@H](C)CC here?
Answer: 6.2%

Same assay, conditions: the molecule shown is the open-chain precursor, 38-membered ring, pH ~7.5, 5.0 mM

Question: Which ring closure, overall yield does the source give for CC(=O)CCC(=O)CCC(=O)NCCC[C@H](NC(C)=O)C(=O)N[C@@H](Cc1c[nH]c2ccccc12)C(=O)N[C@@H](CCCNC(=N)N)C(=O)NCC(=O)N[C@@H](CC(=O)O)C(=O)N[C@@H](Cc1ccc(O)cc1)C(=O)N[C@@H](CO)C(=O)N[C@@H](CCCNC(=O)CNN)C(N)=O [Ac-Orn(4,7-dioxooctanoyl)*-W-R-G-D-Y-S-Orn(COCH2NHNH2)*-NH2] here?
Answer: 16.7%

Question: Which ring closure, overall yield does the source give for CC[C@H](C)[C@H](NC(=O)[C@H](CCCNC(=O)CNN)NC(=O)c1ccc(NC(C)=O)cc1)C(=O)N[C@@H](C)C(=O)N[C@@H](C)C(=O)N[C@@H](CC(C)C)C(=O)N[C@@H](CCCCN)C(=O)N[C@@H](CCC(=O)O)C(=O)N[C@@H](CCCCN)C(=O)N[C@H](C(=O)N[C@@H](CCCNC(=O)CNN)C(=O)N[C@@H](C)C(=O)N[C@@H](CC(C)C)C(=O)N[C@@H](CCCCN)C(=O)N[C@@H](CCC(=O)O)C(=O)N[C@@H](CCCCN)C(=O)N[C@H](C(=O)N[C@@H](CCCNC(=O)CCC(=O)CCC(C)=O)C(=O)N[C@@H](C)C(=O)N[C@@H](CC(C)C)C(=O)N[C@@H](CCCCN)C(=O)N[C@@H](CCC(=O)O)C(N)=O)[C@@H](C)CC)[C@@H](C)CC here?
Answer: 6.9%

Question: For CC[C@H](C)[C@H](NC(=O)[C@H](CCCNC(=O)CCC(=O)CCC(=O)c1ccc(OC)cc1)NC(=O)[C@H](CCCNC(=N)N)NC(=O)CNC(=O)[C@H](CCCCN)NC(=O)[C@H](CC(C)C)NC(=O)[C@H](Cc1c[nH]cn1)NC(=O)CNC(=O)[C@@H]1CCCN1C(C)=O)C(=O)NCC(=O)N[C@@H](CC(C)C)C(=O)N[C@@H](Cc1c[nH]c2ccccc12)C(=O)N[C@@H](Cc1ccc(O)cc1)C(=O)N[C@@H](C)C(=O)N[C@@H](CCCNC(=O)CNN)C(=O)N[C@@H](CCCCN)C(=O)N[C@@H](CCC(N)=O)C(=O)NCC(=O)N[C@@H](CCC(N)=O)C(=O)N[C@@H](CCCCN)C(=O)N[C@@H](CC(N)=O)C(=O)N[C@@H](CCCCN)C(N)=O, which ring closure, overall yield is on record?
Answer: 17.1%

Question: Which ring closure, overall yield does the source give for CC[C@H](C)[C@H](NC(=O)[C@H](CCCNC(=O)CCC(=O)CCC(C)=O)NC(=O)[C@H](CCCNC(=N)N)NC(=O)CNC(=O)[C@H](CCCCN)NC(=O)[C@H](CC(C)C)NC(=O)[C@H](Cc1c[nH]cn1)NC(=O)CNC(=O)[C@@H]1CCCN1C(C)=O)C(=O)NCC(=O)N[C@@H](CC(C)C)C(=O)N[C@@H](Cc1c[nH]c2ccccc12)C(=O)N[C@@H](Cc1ccc(O)cc1)C(=O)N[C@@H](C)C(=O)N[C@@H](CCCNC(=O)CNN)C(=O)N[C@@H](CCCCN)C(=O)N[C@@H](CCC(N)=O)C(=O)NCC(=O)N[C@@H](CCC(N)=O)C(=O)N[C@@H](CCCCN)C(=O)N[C@@H](CC(N)=O)C(=O)N[C@@H](CCCCN)C(N)=O here?
Answer: 16.8%

Reference: paper PMC10510716
